Data on 31 molecules can be found in ChEMBL document CHEMBL1255530, “3D-QSAR CoMFA study of benzoxazepine derivatives as mGluR5 positive allosteric modulators” (Bioorg Med Chem Lett, 2010).

The target in this assay is Metabotropic glutamate receptor 5 (Rattus norvegicus, UniProt P31424). The assay can be described thus: Positive allosteric modulation of rat mGluR5 expressed in HEK293 cells.
Chain of Metabotropic glutamate receptor 5 (P31424 whole entry): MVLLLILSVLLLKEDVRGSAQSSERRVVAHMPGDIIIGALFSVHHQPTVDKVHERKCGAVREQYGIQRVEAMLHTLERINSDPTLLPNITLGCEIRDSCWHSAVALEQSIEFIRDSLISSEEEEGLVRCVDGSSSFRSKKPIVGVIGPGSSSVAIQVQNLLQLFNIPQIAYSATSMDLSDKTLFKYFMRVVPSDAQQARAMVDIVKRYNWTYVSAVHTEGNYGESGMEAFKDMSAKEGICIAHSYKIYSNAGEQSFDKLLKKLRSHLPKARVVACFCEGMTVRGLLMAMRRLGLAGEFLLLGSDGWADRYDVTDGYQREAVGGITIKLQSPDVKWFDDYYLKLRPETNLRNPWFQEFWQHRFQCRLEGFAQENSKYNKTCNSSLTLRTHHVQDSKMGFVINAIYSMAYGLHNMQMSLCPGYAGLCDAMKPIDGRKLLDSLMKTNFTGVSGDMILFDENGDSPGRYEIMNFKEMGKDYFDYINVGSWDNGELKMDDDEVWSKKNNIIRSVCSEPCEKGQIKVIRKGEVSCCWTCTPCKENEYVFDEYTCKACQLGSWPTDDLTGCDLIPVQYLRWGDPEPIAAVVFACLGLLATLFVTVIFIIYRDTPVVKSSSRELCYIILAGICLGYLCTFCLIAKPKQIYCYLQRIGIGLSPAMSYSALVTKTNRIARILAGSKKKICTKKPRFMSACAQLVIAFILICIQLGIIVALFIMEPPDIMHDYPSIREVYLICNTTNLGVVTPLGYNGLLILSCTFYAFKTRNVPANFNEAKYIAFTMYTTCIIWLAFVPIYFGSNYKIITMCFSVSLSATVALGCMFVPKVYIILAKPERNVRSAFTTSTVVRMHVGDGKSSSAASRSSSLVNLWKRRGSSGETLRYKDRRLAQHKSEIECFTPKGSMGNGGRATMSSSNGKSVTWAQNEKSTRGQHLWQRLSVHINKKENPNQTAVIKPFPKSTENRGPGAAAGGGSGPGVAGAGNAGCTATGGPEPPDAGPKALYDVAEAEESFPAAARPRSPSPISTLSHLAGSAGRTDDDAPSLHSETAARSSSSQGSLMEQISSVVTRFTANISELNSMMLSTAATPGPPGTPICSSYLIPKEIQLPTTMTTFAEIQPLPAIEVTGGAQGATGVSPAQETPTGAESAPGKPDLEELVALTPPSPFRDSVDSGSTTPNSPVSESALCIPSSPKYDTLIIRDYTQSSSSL
What is called EC50 is the midpoint of the concentration-response curve. A lower EC50 goes with an effect from little substance. In turn, `C=CCSc1nnc2c(n1)O[C@@H](c1ccccc1F)N(C(C)=O)c1ccccc1-2` showed an EC50 of 1120 nM.

`CSc1nnc2c(n1)O[C@@H](c1ccc(OC(C)=O)c(Br)c1)N(C(C)=O)c1ccccc1-2` showed an EC50 of 3800 nM. `CCC(=O)N1c2ccccc2-c2nnc(SC)nc2O[C@H]1c1ccc(OC)c(Br)c1` showed an EC50 of 1100 nM. Take `CCCSc1nnc2c(n1)O[C@@H](CC)N(C(C)=O)c1ccccc1-2`: a half-maximal response (EC50) required 6760 nM.

Molecule `C=CCSc1nnc2c(n1)O[C@@H](c1cc(C)ccc1OC(C)=O)N(C(C)=O)c1ccccc1-2` gave an EC50 of 891 nM. `C=CCSc1nnc2c(n1)O[C@@H](c1ccc(OC(C)=O)c(OCC)c1)N(C(C)=O)c1ccccc1-2` gave an EC50 of 1260 nM.

`CSc1nnc2c(n1)O[C@@H](c1ccc(Br)cc1)N(C(C)=O)c1ccccc1-2`: the EC50 is 1510 nM. For the molecule `CCCC(=O)N1c2ccccc2-c2nnc(SC)nc2O[C@H]1c1sccc1C`, the midpoint of the response, the EC50, lay at 1860 nM. As for `C=CCOc1ccc([C@@H]2Oc3nc(SCC=C)nnc3-c3ccccc3N2C(C)=O)cc1`, the response was half-maximal at 1200 nM (EC50).

`CCC(=O)N1c2ccccc2-c2nnc(SC)nc2O[C@H]1c1ccc(Br)s1` gave an EC50 of 1120 nM. For `C=CCSc1nnc2c(n1)O[C@@H](c1ccccc1OCCC)N(C(C)=O)c1ccccc1-2`, the midpoint of the response, the EC50, lay at 1320 nM. `CCSc1nnc2c(n1)O[C@@H](c1cc(OC(C)=O)ccc1Cl)N(C(C)=O)c1ccccc1-2`: the concentration giving a half-maximal response (EC50) was 3800 nM. The molecule `CCCOc1ccccc1[C@@H]1Oc2nc(SCC)nnc2-c2ccccc2N1C(C)=O` gave an EC50 of 1120 nM. In the case of `CCOc1cc([C@@H]2Oc3nc(SC)nnc3-c3ccccc3N2C(=O)CC)ccc1OC`, the midpoint of the response, the EC50, lay at 1380 nM. For `CCSc1nnc2c(n1)O[C@@H](c1ccc(SC)cc1)N(C(=O)CC)c1ccccc1-2`, a half-maximal effect (EC50) was put at 1230 nM. In the case of `C=CCSc1nnc2c(n1)O[C@@H](c1ccccn1)N(C(=O)CC)c1ccccc1-2`, the EC50 was 437 nM. With `CCC(=O)N1c2ccccc2-c2nnc(SC)nc2O[C@H]1c1ccco1`, the EC50 is 4270 nM. The molecule `C=CCSc1nnc2c(n1)O[C@@H](c1cccnc1)N(C(C)=O)c1ccccc1-2` showed an EC50 of 832 nM. To `CCCC(=O)N1c2ccccc2-c2nnc(SC)nc2O[C@H]1c1cccs1` belongs 871 nM; to `C=CCSc1nnc2c(n1)O[C@@H](c1ccc(OCC)c(OC)c1)N(C(C)=O)c1ccccc1-2`, 692 nM.

Regarding `CCSc1nnc2c(n1)O[C@H](c1cc3c(cc1Br)OCO3)N(C(C)=O)c1ccccc1-2`, the EC50 is 4270 nM.

The molecule `CCC(=O)Oc1ccc([C@@H]2Oc3nc(SC)nnc3-c3ccccc3N2C(=O)CC)cc1` gave an EC50 of 3630 nM.

`CCCCSc1nnc2c(n1)O[C@@H](c1cccc(F)c1)N(C(C)=O)c1ccccc1-2` showed an EC50 of 513 nM.

Take `CCCCOc1ccccc1[C@@H]1Oc2nc(SC)nnc2-c2ccccc2N1C(=O)CC`: the EC50 is 3720 nM. As for `CSc1nnc2c(n1)O[C@@H](c1ccsc1)N(C(C)=O)c1ccccc1-2`, the EC50 is 1020 nM.

`COc1ccc([C@@H]2Oc3nc(SC)nnc3-c3ccccc3N2C(C)=O)cc1`: the EC50 was 2750 nM.

Consider `CCCC(=O)N1c2ccccc2-c2nnc(SC)nc2O[C@H]1c1ccc(C(=O)OC)cc1`, for which the EC50 was 2240 nM. In turn, `CSc1nnc2c(n1)O[C@H](c1cn(C(C)=O)c3ccccc13)N(C(C)=O)c1ccccc1-2` had an EC50 of 871 nM. The molecule `CCC(=O)Oc1ccc(Br)c([C@@H]2Oc3nc(SC)nnc3-c3ccccc3N2C(=O)CC)c1` gave an EC50 of 5750 nM.

Consider `CCSc1nnc2c(n1)O[C@H](c1ccc(OC(C)=O)c(OC)c1)N(C(C)=O)c1ccccc1-2`, for which a half-maximal effect (EC50) was put at 1000 nM. `CCC(=O)N1c2ccccc2-c2nnc(SC)nc2O[C@H]1c1ccc(Cl)cc1` had an EC50 of 871 nM.
